# Data: patent US20250313563A1, “GLYCOGEN SYNTHASE KINASE 3 INHIBITORS AND USES THEREOF” (The Broad Institute, Inc., priority 2022, published 2025)
# Read-outs that look alike come from different tables or passages of the source.
# How the values were obtained:
# [1] = target: GSK3α (GST-full length GSK3α) (Homo sapiens (Human), UniProt P49840); assay: GSK3α TR-FRET kinase assay; assay type: biochemical
# How it was run: (§1)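 IC50s came from the normalized 665/615 TR-FRET ratio after Tb-anti-pSer641 antibody and streptavidin-d2 detection of phosphorylated biotin-glycogen synthase peptide (200 nM). ATP was 4 μM for GSK3α, 2 μM for GSK3b, or 1 mM; 1 nM enzyme, 100 min, ambient, pH 7.5, after 30-min compound preincubation.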
# [2] = target: GSK3b (GST-full length GSK3b) (Homo sapiens (Human), UniProt P49841); assay: GSK3b TR-FRET kinase assay; assay type: biochemical
# How it was run: as §1
# [3] = 1 nM GSK3α, 4 μM ATP, 30 minute preincubation, Table 16, read-out: GSK3-A TR-FRET BIOCHEMICAL (TR-FRET)
# [4] = 1 nM GSK3b, 2 μM ATP, 30 minute preincubation, Table 16, read-out: GSK3-B TR-FRET BIOCHEMICAL (TR-FRET)
# [5] = GSK3-A (TR-FRET 1 mM ATP), GMean, IC50, 1 mM ATP, geometric mean
# [6] = GSK3-B (TR-FRET 1 mM ATP), GMean, IC50, 1 mM ATP, geometric mean
# [7] = 1 nM GSK3α, 4 μM ATP, 30 minute preincubation, read-out: GSK3-A TR-FRET BIOCHEMICAL (TR-FRET), IC50
# [8] = 1 nM GSK3b, 2 μM ATP, 30 minute preincubation, read-out: GSK3-B TR-FRET BIOCHEMICAL (TR-FRET), IC50
# [9] = read-out: GSK3-A (TR-FRET 1 mM ATP), GMean, IC50, 1 mM ATP, geometric mean
# [10] = read-out: GSK3-B (TR-FRET 1 mM ATP), GMean, IC50, 1 mM ATP, geometric mean
# [11] = 1 nM GSK3α, 4 μM ATP, 30 minute preincubation, geometric mean, read-out: GSK3-A TR-FRET BIOCHEMICAL (TR-FRET), GMean, IC50
# [12] = 1 nM GSK3b, 2 μM ATP, 30 minute preincubation, geometric mean, read-out: GSK3-B TR-FRET BIOCHEMICAL (TR-FRET), GMean, IC50
# Chain of GSK3b (GST-full length GSK3b) (P49841 whole entry): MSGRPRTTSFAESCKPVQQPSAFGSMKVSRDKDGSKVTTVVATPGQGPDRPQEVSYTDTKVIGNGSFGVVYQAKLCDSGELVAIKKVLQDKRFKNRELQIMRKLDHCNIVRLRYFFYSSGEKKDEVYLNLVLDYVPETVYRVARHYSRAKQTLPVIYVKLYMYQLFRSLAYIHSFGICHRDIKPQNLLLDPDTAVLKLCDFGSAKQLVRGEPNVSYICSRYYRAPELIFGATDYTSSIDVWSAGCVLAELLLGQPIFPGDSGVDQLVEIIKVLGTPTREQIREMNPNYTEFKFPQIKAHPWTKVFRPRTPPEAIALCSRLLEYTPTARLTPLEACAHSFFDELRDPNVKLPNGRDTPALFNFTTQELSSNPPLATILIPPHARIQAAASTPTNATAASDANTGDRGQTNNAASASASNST
# Chain of GSK3α (GST-full length GSK3α) (P49840 whole entry): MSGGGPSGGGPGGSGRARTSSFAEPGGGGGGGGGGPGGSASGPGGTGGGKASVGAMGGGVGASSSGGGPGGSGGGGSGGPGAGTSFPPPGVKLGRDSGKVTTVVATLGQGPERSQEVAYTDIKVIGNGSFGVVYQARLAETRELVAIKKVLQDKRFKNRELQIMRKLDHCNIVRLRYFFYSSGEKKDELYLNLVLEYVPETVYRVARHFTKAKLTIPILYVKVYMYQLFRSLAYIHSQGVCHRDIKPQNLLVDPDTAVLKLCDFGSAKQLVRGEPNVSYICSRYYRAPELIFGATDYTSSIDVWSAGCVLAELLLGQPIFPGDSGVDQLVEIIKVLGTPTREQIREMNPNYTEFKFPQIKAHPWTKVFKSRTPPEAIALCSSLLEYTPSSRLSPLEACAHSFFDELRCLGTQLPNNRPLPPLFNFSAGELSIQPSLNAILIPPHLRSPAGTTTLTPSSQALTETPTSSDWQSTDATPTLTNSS
structure (smiles),measurement,setting,value
COc1ccc(S(=O)(=O)N2CCC3(CC2)C2=C(CC(C)(C)CC2=O)Nc2n[nH]cc23)cc1Cl [Compound 947612],IC50,[1]; [3],≤ 100 nM
same,IC50,[2]; [4],≤ 100 nM
CC1(C)CC(=O)C2=C(C1)Nc1n[nH]cc1C21CCN(S(=O)(=O)c2cccnc2)CC1 [Compound 947613],IC50,[1]; [3],≤ 100 nM
same,IC50,[1]; [5],100 to 1000 nM
same,IC50,[2]; [4],≤ 100 nM
same,IC50,[2]; [6],1000 to 5000 nM
Cc1cnc2c(S(=O)(=O)N3CCC4(CC3)C3=C(CC(C)(C)CC3=O)Nc3n[nH]cc34)cccc2c1 [Compound 947614],IC50,[1]; [7],≤ 100 nM
same,IC50,[2]; [8],≤ 100 nM
CC1(C)CC(=O)C2=C(C1)Nc1n[nH]cc1C21CCN(S(=O)(=O)c2cnn3ccccc23)CC1 [Compound 947615],IC50,[1]; [3],≤ 100 nM
same,IC50,[2]; [4],≤ 100 nM
Cc1cc(S(=O)(=O)N2CCC3(CC2)C2=C(CC(C)(C)CC2=O)Nc2n[nH]cc23)cc(C)n1 [Compound 947616],IC50,[1]; [3],≤ 100 nM
same,IC50,[1]; [5],100 to 1000 nM
same,IC50,[2]; [4],≤ 100 nM
same,IC50,[2]; [6],1000 to 5000 nM
CC[C@]1(c2cccc(-c3cc(C)nn3C)c2)C2=C(Nc3n[nH]cc31)[C@H](F)C(C)(C)CC2=O [Compound 947656],IC50,[1]; [3],100 to 1000 nM
same,IC50,[2]; [4],> 5000 nM
CCC1(c2cccc(-c3c(C)cncc3C)c2)C2=C(CC(C)(C)CC2=O)Nc2n[nH]cc21 (stereo not drawn) [Compound 947658],IC50,[1]; [9],≤ 100 nM
same,IC50,[2]; [10],100 to 1000 nM
CC[C@]1(c2cccc(Cc3ncccc3C(F)(F)F)c2)C2=C(CC(C)(C)CC2=O)Nc2n[nH]cc21 [Compound 947665],IC50,[1]; [3],1000 to 5000 nM
same,IC50,[2]; [4],> 5000 nM
CCC1(c2cccc(N3CCCCC3)c2)C2=C(CC(C)(C)NC2=O)Nc2n[nH]c(C)c21 (stereo not drawn) [Compound 947674],IC50,[1]; [11],≤ 100 nM
same,IC50,[2]; [12],100 to 1000 nM
CCC1(c2cccc(-c3ccnc4c3CCC4)c2)C2=C(CC(C)(C)NC2=O)Nc2n[nH]c(C)c21 (stereo not drawn) [Compound 947675],IC50,[1]; [11],≤ 100 nM
same,IC50,[2]; [12],100 to 1000 nM
CCC1(c2cccc(-c3ccnc4c3CCC4)c2)C2=C(CC(C)(C)NC2=O)Nc2n[nH]cc21 (stereo not drawn) [Compound 947676],IC50,[1]; [11],≤ 100 nM
same,IC50,[2]; [12],100 to 1000 nM
CCC1(c2cccc(-c3cn[nH]c3)c2)C2=C(CC(C)(C)NC2=O)Nc2n[nH]c(C(F)(F)F)c21 (stereo not drawn) [Compound 947677],IC50,[1]; [11],≤ 100 nM
same,IC50,[2]; [12],≤ 100 nM
CC1CC(C(=O)N2CC3(C2)CC2(CO3)C3=C(CC(C)(C)CC3=O)Nc3n[nH]cc32)C1 (stereo not drawn) [Compound 947732],IC50,[1]; [7],100 to 1000 nM
same,IC50,[2]; [8],1000 to 5000 nM
CC1CC(C(=O)N2CC3(C2)CC2(CO3)C3=C(CC(C)(C)CC3=O)Nc3n[nH]cc32)C1 (stereo not drawn) [Compound 947733],IC50,[1]; [7],≤ 100 nM
same,IC50,[2]; [8],≤ 100 nM
CC1(C)CC(=O)C2=C(C1)Nc1n[nH]cc1[C@]21COC2(CN(C(=O)C3(F)CCC3)C2)C1 [Compound 947735],IC50,[1]; [7],≤ 100 nM
same,IC50,[2]; [8],≤ 100 nM
CC1(C)CC(=O)C2=C(C1)Nc1n[nH]cc1C21COC2(CN(C(=O)C3(F)CCC3)C2)C1 (stereo not drawn) [Compound 947736],IC50,[1]; [7],≤ 100 nM
same,IC50,[2]; [8],100 to 1000 nM
CCC1(c2cccc(C(F)(F)F)c2)C2=C(CCN(c3ccc(F)cc3)C2=O)Nc2n[nH]cc21 (stereo not drawn) [Compound 947748],IC50,[1]; [11],≤ 100 nM
same,IC50,[2]; [12],100 to 1000 nM
CCC1(c2cccc(-c3ccnc(C)c3)c2)C2=C(CC(C)(C)NC2=O)Nc2n[nH]c(C)c21 (stereo not drawn) [Compound 947798],IC50,[1]; [11],≤ 100 nM
same,IC50,[2]; [12],100 to 1000 nM
CCC1(c2cccc(S(C)(=O)=O)c2)C2=C(CC(C)(C)NC2=O)Nc2n[nH]c(C(F)(F)F)c21 (stereo not drawn) [Compound 947799],IC50,[1]; [11],≤ 100 nM
same,IC50,[2]; [12],≤ 100 nM
CCC1(c2cccc(S(=O)(=O)C(C)C)c2)C2=C(CC(C)(C)NC2=O)Nc2n[nH]c(C(F)(F)F)c21 (stereo not drawn) [Compound 947800],IC50,[1]; [11],≤ 100 nM
same,IC50,[2]; [12],≤ 100 nM
CCC1(c2cccc(-c3cnn4c3CCCC4)c2)C2=C(CC(C)(C)NC2=O)Nc2n[nH]c(C(F)(F)F)c21 (stereo not drawn) [Compound 947801],IC50,[1]; [11],≤ 100 nM
same,IC50,[2]; [12],≤ 100 nM
CCC1(c2cccc(-c3cnnn3C)c2)C2=C(CC(C)(C)CC2=O)Nc2n[nH]cc21 (stereo not drawn) [Compound 947802],IC50,[1]; [3],≤ 100 nM
same,IC50,[2]; [4],≤ 100 nM
CC[C@@]1(c2cccc(S(=O)(=O)C3CC3)c2)C2=C(CC(C)(C)NC2=O)Nc2n[nH]cc21 [Compound 947803],IC50,[1]; [11],≤ 100 nM
same,IC50,[2]; [12],≤ 100 nM
CCC1(c2cccc(-c3cc(C)ncc3F)c2)C2=C(CC(C)(C)NC2=O)Nc2n[nH]cc21 (stereo not drawn) [Compound 947804],IC50,[1]; [11],≤ 100 nM
same,IC50,[2]; [12],100 to 1000 nM
CC[C@]1(c2cccc(-c3ccncc3F)c2)C2=C(CC(C)(C)NC2=O)Nc2n[nH]c(C)c21 [Compound 947805],IC50,[1]; [11],100 to 1000 nM
same,IC50,[2]; [12],1000 to 5000 nM
CCC1(c2cccc(-c3cncn3C)c2)C2=C(CC(C)(C)NC2=O)Nc2n[nH]cc21 (stereo not drawn) [Compound 947806],IC50,[1]; [11],≤ 100 nM
same,IC50,[2]; [12],≤ 100 nM
CC[C@]1(c2cccc(-c3cnn(C)c3C)c2)C2=C(CC(C)(C)NC2=O)Nc2n[nH]c(C(F)(F)F)c21 [Compound 947807],IC50,[1]; [11],≤ 100 nM
same,IC50,[2]; [12],100 to 1000 nM
CCC1(c2cccc(Oc3ncccn3)c2)C2=C(CC(C)(C)CC2=O)Nc2n[nH]cc21 (stereo not drawn) [Compound 947808],IC50,[1]; [3],≤ 100 nM
same,IC50,[1]; [9],≤ 100 nM
same,IC50,[2]; [4],≤ 100 nM
same,IC50,[2]; [10],100 to 1000 nM
CC[C@]1(c2cccc(-c3cnn4c3CCCC4)c2)C2=C(CC(C)(C)NC2=O)Nc2n[nH]c(C)c21 [Compound 947809],IC50,[1]; [11],100 to 1000 nM
same,IC50,[2]; [12],1000 to 5000 nM
CC[C@]1(c2cccc(-c3ccnc(CCO)c3)c2)C2=C(CC(C)(C)CC2=O)Nc2n[nH]cc21 [Compound 947810],IC50,[1]; [3],≤ 100 nM
same,IC50,[2]; [4],100 to 1000 nM
CC[C@]1(c2cccc(-c3ccncc3C)c2)C2=C(CC(C)(C)NC2=O)Nc2[nH]nc(C(F)(F)F)c21 [Compound 947812],IC50,[1]; [11],≤ 100 nM
same,IC50,[2]; [12],≤ 100 nM
CC1(C)CC(=O)C2=C(C1)Nc1n[nH]cc1C21CN(c2cccnc2)C1 [Compound 947813],IC50,"[1]; 1 nM GSK3α, 4 μM ATP, 30 minute preincubation, Table 16, read-out: GSK3-A TR-FRET BIOCHEMICAL (TR-FRET), IC50",1000 to 5000 nM
same,IC50,"[2]; 1 nM GSK3b, 2 μM ATP, 30 minute preincubation, Table 16, read-out: GSK3-B TR-FRET BIOCHEMICAL (TR-FRET), IC50",1000 to 5000 nM
CCC1(c2cccc(-c3ccncc3C)c2)C2=C(CC(C)(C)NC2=O)Nc2n[nH]c(C(F)(F)F)c21 (stereo not drawn) [Compound 947814],IC50,[1]; [11],≤ 100 nM
same,IC50,[1]; [9],≤ 100 nM
same,IC50,[2]; [12],≤ 100 nM
same,IC50,[2]; [10],≤ 100 nM
CC[C@@]1(c2cccc(-c3ccnc(CCO)c3)c2)C2=C(CC(C)(C)CC2=O)Nc2n[nH]cc21 [Compound 947816],IC50,[1]; [3],1000 to 5000 nM
same,IC50,[2]; [4],> 5000 nM
CC[C@@]1(c2cccc(-c3cnn4c3CCCC4)c2)C2=C(CC(C)(C)NC2=O)Nc2n[nH]c(C)c21 [Compound 947817],IC50,[1]; [11],≤ 100 nM
same,IC50,[2]; [12],≤ 100 nM
CCC1(c2cccc(Oc3ncccn3)c2)C2=C(CC(C)(C)CC2=O)Nc2n[nH]cc21 (stereo not drawn) [Compound 947818],IC50,[1]; [3],100 to 1000 nM
same,IC50,[2]; [4],> 5000 nM
CC[C@]1(c2cccc(-c3cncn3C)c2)C2=C(CC(C)(C)NC2=O)Nc2n[nH]cc21 [Compound 947820],IC50,[1]; [11],100 to 1000 nM
same,IC50,[2]; [12],100 to 1000 nM
CC[C@@]1(c2cccc(-c3ccncc3F)c2)C2=C(CC(C)(C)NC2=O)Nc2n[nH]c(C)c21 [Compound 947821],IC50,[1]; [11],≤ 100 nM
same,IC50,[2]; [12],≤ 100 nM
CC[C@]1(c2cccc(-c3cc(C)ncc3F)c2)C2=C(CC(C)(C)NC2=O)Nc2n[nH]cc21 [Compound 947822],IC50,[1]; [11],100 to 1000 nM
same,IC50,[2]; [12],> 5000 nM
CCC1(c2cccc(-c3cnnn3C)c2)C2=C(CC(C)(C)CC2=O)Nc2n[nH]cc21 (stereo not drawn) [Compound 947824],IC50,[1]; [3],100 to 1000 nM
same,IC50,[2]; [4],1000 to 5000 nM
CC[C@]1(c2cccc(N(C)c3ncccn3)c2)C2=C(CC(C)(C)NC2=O)Nc2n[nH]cc21 [Compound 947826],IC50,[1]; [11],≤ 100 nM
same,IC50,[2]; [12],≤ 100 nM
